What is called inhibition is the drop in the measured response relative to a control, in per cent. A lower inhibition goes with little suppression.

Data on eight molecules can be found in ChEMBL document CHEMBL1129993, “Synthesis and biological characterization of 1,4,5,6-tetrahydropyrimidine and 2-amino-3,4,5,6-tetrahydropyridine derivatives as selective m1 agonists” (J Med Chem, 1997).

The target in assay [1] is Muscarinic acetylcholine receptor M3 (Mus musculus) (UniProt Q9ERZ3). Put plainly: Percent inhibition (high) of [3H](R)-QNB binding to Muscarinic acetylcholine receptor M3 expressed in A9 L cell line. Format: cell-based. The note with it: A9L, concentration not given here.
Assay [2] addresses T1, Muscarinic acetylcholine receptor M2 (Mus musculus) (UniProt Q9ERZ4).
T1 sequence (whole entry): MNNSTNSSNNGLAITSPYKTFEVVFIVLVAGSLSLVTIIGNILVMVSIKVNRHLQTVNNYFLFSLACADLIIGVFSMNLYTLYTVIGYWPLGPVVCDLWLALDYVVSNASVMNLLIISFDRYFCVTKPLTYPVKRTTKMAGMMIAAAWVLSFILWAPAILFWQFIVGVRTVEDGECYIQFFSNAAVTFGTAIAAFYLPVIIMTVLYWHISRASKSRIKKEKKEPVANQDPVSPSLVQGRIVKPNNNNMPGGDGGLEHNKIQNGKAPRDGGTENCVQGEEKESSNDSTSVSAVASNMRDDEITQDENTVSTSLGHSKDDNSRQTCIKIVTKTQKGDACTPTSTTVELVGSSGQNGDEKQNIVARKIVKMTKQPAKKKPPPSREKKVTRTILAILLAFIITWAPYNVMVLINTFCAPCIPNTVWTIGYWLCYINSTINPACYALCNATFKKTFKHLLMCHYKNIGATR
The note with it: A9L.

Assay [3] deals with Muscarinic acetylcholine receptor M3 (Mus musculus) (UniProt Q9ERZ3). Put plainly: Binding affinity (high) of [3H](R)-QNB binding to Muscarinic acetylcholine receptor M3 expressed in A9 L cell line. Format: cell-based. The note with it: A9L.
Assay [4] has the same target. Conditions: A9L.
Description: Binding affinity (low) of [3H](R)-QNB binding to Muscarinic acetylcholine receptor M3 expressed in A9 L cell line
Assay [5] deals with T2, Muscarinic acetylcholine receptor M1 (Mus musculus) (UniProt P12657).
T2 sequence (whole entry): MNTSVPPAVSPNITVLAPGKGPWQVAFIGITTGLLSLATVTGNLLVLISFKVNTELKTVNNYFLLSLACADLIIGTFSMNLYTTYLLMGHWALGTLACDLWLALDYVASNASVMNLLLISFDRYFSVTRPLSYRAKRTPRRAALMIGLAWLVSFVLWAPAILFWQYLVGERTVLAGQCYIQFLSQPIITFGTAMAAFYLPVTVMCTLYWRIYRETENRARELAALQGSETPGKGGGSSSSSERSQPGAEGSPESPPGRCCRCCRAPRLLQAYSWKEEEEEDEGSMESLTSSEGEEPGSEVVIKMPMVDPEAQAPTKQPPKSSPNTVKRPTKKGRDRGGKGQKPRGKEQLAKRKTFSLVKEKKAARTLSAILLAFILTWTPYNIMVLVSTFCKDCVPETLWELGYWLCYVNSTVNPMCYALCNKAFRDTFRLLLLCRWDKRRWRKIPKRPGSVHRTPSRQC
Put plainly: Percent inhibition (high) of [3H](R)-QNB binding to Muscarinic acetylcholine receptor M1 expressed in A9 L cell line in the absence of 300 uM GTP-gamma-S. The note with it: A9L. The assay is classed as cell-based.

The target in assay [6] is T1, Muscarinic acetylcholine receptor M2 (Mus musculus). The note with it: A9L. This is another data set of the same source.

Muscarinic acetylcholine receptor M3 (Mus musculus), sequence (Q9ERZ3 whole entry): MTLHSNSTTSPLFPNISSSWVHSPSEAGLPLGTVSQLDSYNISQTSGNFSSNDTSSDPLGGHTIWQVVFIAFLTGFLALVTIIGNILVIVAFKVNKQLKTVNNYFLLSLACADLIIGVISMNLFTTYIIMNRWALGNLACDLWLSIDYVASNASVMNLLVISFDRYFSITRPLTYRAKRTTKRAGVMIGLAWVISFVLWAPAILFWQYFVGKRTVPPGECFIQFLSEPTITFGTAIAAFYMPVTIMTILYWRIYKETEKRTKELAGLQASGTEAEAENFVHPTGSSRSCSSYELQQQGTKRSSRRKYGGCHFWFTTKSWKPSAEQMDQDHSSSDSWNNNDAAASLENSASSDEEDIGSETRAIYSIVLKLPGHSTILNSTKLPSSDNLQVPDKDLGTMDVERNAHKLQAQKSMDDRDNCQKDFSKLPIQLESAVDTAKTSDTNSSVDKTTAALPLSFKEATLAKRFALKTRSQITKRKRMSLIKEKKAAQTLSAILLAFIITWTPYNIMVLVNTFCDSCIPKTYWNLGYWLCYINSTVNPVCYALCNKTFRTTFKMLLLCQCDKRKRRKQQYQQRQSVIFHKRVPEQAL

`Cc1noc(C2=CCCN(C)C2)n1` registered an inhibition in assay [1] of 29%. For the same molecule, the figures for the KL in assay [2] and in assay [4] were 0.087 nM and 0.46 nM, respectively. In assay [3], this molecule showed a KH of 16 nM.
As for `CC#CCOC(=O)C1CN=CNC1` (stereo not given), the inhibition in assay [5] was found to be 23.4%.
On the same count and under the same terms, then `CCCC#Cc1noc(C2CN=CNC2)n1` (stereo not given), with 32.5%.
For the molecule `Cc1noc(C2CN=CNC2)n1` (stereo not given), the values for the inhibition in assay [1] and in assay [5] were 95% and 30.9%, respectively. The KL in assay [2] stood at 0.46 nM; in assay [4], 0.57 nM.
Regarding `C[N+](C)(C)CCOC(N)=O`, in assay [1], the inhibition is 19%. In addition, the KL in assay [2] amounted to 12 nM; in assay [4] it was 8.4 nM. In addition, the KH in assay [3] came out at 56 nM; in assay [6], 0.81 nM.
Molecule `C#CCOC(=O)C1CN=CNC1` (stereo not given) gave an inhibition in assay [5] of 31.5%.
The molecule `COC(=O)C1CN=CNC1` (stereo not given) yielded an inhibition in assay [5] of 23.5%. Further, the KL in assay [2] and in assay [4] was 3.3 nM throughout.
In assay [5], `C#CCCOC(=O)C1CN=CNC1` (stereo not given) displayed an inhibition of 23.2%.
